Where a name gives a salt, the structure may show the parent alone. Read-outs that look alike come from different tables or passages of the source.
Columns and labels:
[1] = tested on: LPS-induced microglia activation; test: Image-based assay of LPS-induced microglia activation (HTS and dose response); format: cell-based, rat
[2] = tested on: fibrin-induced microglia activation; test: Image-based assay of fibrin-induced microglia activation (HTS and dose response); format: cell-based, rat; conditions: for inhibition at 10 µM: Rattus norvegicus, Microglia, read-out: Fibrin % inhibition
primary rat microglia [3] = tested on: primary rat microglia;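 for Fibrin % cell toxicity: share of dead cells sized under 150 µm2 at 10 µM in fibrin-stimulated microglia HTS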
[4] = tested on: fibrin- and LPS-induced microglia activation; test: cells; format: cell-based, rat
primary rat microglia [5] = tested on: primary rat microglia; remark: listed apart in the source;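 for Fibrin % cell toxicity: share of dead cells sized under 150 µm2 at 10 µM in fibrin-stimulated microglia HTS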
[6] = Rattus norvegicus, Microglia, read-out: LPS % inhibition
[7] = primary microglia HTS, fibrin stimulation, increased cell size (>800 μm^2) as marker of activation
[8] = quadrant by fibrin and LPS inhibition in HTS of 1907 compounds
[9] = primary microglia HTS, fibrin stimulation, compounds at 10 μM
[10] = primary microglia HTS, fibrin stimulation, activation = cell size >800 μm2
[11] = Rattus norvegicus, Microglia, 48 h, read-out: LPS % inhibition
[12] = Rattus norvegicus, Microglia, 48 h; read-out: LPS % inhibition
[13] = primary microglia HTS, fibrin stimulation, cell size >800 μm2 as marker of activation
[14] = classification by fibrin and LPS inhibition in HTS
[15] = Rattus norvegicus, Microglia, primary microglia HTS, LPS stimulation, compounds at 10 μM; read-out: LPS % inhibition
[16] = quadrant by fibrin and LPS inhibition, HTS at 10 μM

## [O-][n+]1ccccc1[S-].[O-][n+]1ccccc1[S-].[Zn+2] [Pyrithione Zinc]
[1]; 10 µM
  LPS % inhibition: 127%
[2]; 10 µM
  Fibrin % inhibition: 109%
Primary rat microglia [3]
  Fibrin % cell toxicity: 86%
[4]
  Quadrant (FIG. 5b): Q2
Primary rat microglia [5]
  LPS % cell toxicity: 87%

## O=c1n(CCCN2CCN(c3cccc(Cl)c3)CC2)nc2ccccn12 [Trazodone]
[1]; [6]
  inhibition at 10 µM: -2%
[2]
  inhibition at 10 µM: -10%
Primary rat microglia [3]; rat
  Fibrin % cell toxicity: 0%
[4]
  Quadrant (FIG. 5b): Q4
Primary rat microglia [5]; rat
  LPS % cell toxicity: 0%

## CO[C@]12C[C@@H](COC(=O)c3cncc(Br)c3)CN(C)[C@@H]1Cc1cn(C)c3cccc2c13 [Nicergoline]
[1]; Rattus norvegicus, Microglia, 48 h, primary microglia HTS, LPS stimulation; increased cell size (>800 μm^2) as marker of activation; read-out: LPS % inhibition
  inhibition at 10 µM: 7%
[2]; [7]
  inhibition at 10 µM: 6%
Primary rat microglia [3]; rat
  Fibrin % cell toxicity: 1%
[4]; [8]
  Quadrant (FIG. 5b): Q4
Primary rat microglia [5]; rat
  LPS % cell toxicity: 0%

## [H-].[Li+] [Lithium hydride]
[1]
  LPS % inhibition: 20%
[2]
  Fibrin % inhibition: −6%
Primary rat microglia [3]
  Fibrin % cell toxicity: 1%
[4]
  Quadrant (FIG. 5b): Q4
Primary rat microglia [5]
  LPS % cell toxicity: 0%

## CC12CCC(CC1=O)C2(C)C [D-camphor]
[1]; primary microglia HTS, LPS stimulation, compounds at 10 μM
  LPS % inhibition: 6%
[2]; [9]
  Fibrin % inhibition: −32%
Primary rat microglia [3]
  Fibrin % cell toxicity: 0%
[4]; classification by fibrin and LPS inhibition, HTS at 10 μM
  Quadrant (FIG. 5b): Q4
Primary rat microglia [5]
  LPS % cell toxicity: 0%

## N[C@@H](CC(=O)O)C(=O)O [L-aspartic Acid, Aspartic Acid (I)]
[1]; primary microglia HTS, LPS stimulation, activation = cell size >800 μm2
  LPS % inhibition: 13%
[2]; [10]
  Fibrin % inhibition: 5%
Primary rat microglia [3]
  Fibrin % cell toxicity: 1%
[4]; [8]
  Quadrant (FIG. 5b): Q4
Primary rat microglia [5]
  LPS % cell toxicity: 1%

## NC[C@@H]1CC[C@@H](N)[C@@H](O[C@H]2[C@H](O)[C@@H](O[C@H]3O[C@H](CO)[C@@H](O)[C@H](N)[C@H]3O)[C@H](N)C[C@@H]2N)O1 [Dibekacin]
[1]; [6]
  inhibition at 10 µM: 20%
[2]
  inhibition at 10 µM: 10%
Primary rat microglia [3]; rat
  Fibrin % cell toxicity: 1%
[4]
  Quadrant (FIG. 5b): Q4
Primary rat microglia [5]; rat
  LPS % cell toxicity: 1%

## c1ccc([C@H]2CN3CCSC3=N2)cc1 [Levamisole]
[1]; [11]
  inhibition at 10 µM: 12%
[2]
  inhibition at 10 µM: -15%
Primary rat microglia [3]; rat
  Fibrin % cell toxicity: 0%
[4]
  Quadrant (FIG. 5b): Q4
Primary rat microglia [5]; rat
  LPS % cell toxicity: 0%

## CN(C)CCC(c1ccccc1)c1ccccn1 (stereo not shown) [Pheniramine]
[1]; [12]
  inhibition at 10 µM: 1%
[2]; [13]
  inhibition at 10 µM: -9%
Primary rat microglia [3]; rat
  Fibrin % cell toxicity: 1%
[4]; [14]
  Quadrant (FIG. 5b): Q4
Primary rat microglia [5]; rat
  LPS % cell toxicity: 0%

## Cc1cccc(C)c1OCC(C)N (stereo not shown) [Mexiletine]
[1]; [11]
  inhibition at 10 µM: 13%
[2]
  inhibition at 10 µM: 2%
Primary rat microglia [3]; rat
  Fibrin % cell toxicity: 1%
[4]
  Quadrant (FIG. 5b): Q4
Primary rat microglia [5]; rat
  LPS % cell toxicity: 0%

## C[C@@H]1C[C@H]2[C@@H]3C[C@H](F)C4=CC(=O)C=C[C@]4(C)[C@@]3(F)[C@@H](O)C[C@]2(C)[C@@]1(O)C(=O)COC(=O)C(C)(C)C [Flumethazone pivalate, reference compound]
[1]
  LPS % inhibition: 94%
  LPS specificity: 1.0
  LPS_HS: 0.00
[1]; read-out: LPS IC50
  IC50: 0.004 µM
[1]; read-out: LPS IC50 (uM) (Suppl. Table 7)
  IC50: 0.004 µM
[2]
  Fibrin % inhibition: 101%
  Fibrin Selectivity: 4
  Fibrin Selectivity (LOG10): 0.58
  fib specificity: 1.0
  fib_HS: −0.23
[2]; read-out: Fibrin IC50
  IC50: < 0.001 µM
[2]; read-out: Fibrin IC50 (uM) (Suppl. Table 7)
  IC50: < 0.001 µM
Primary rat microglia [3]
  Fibrin % cell toxicity: 1%
  IC50: > 20000 nM
[4]
  Activity: fib/LPS
  Cherry-picked Hit (Suppl. Table 7): HIT (key: HIT: Hits were defined as molecules that exhibited greater than 50% inhibition of either fibrin or LPS activation)
  Hit: HIT (key: HIT: Hits were defined as molecules that exhibited greater than 50% inhibition of either fibrin or LPS activation)
  Quadrant (FIG. 5b): Q2
Primary rat microglia [5]
  IC50: > 20000 nM
  LPS % cell toxicity: 3%

## CC(C)NCC(O)c1ccc2ccccc2c1 (stereo not shown) [Pronetalol Hydrochloride]
[1]; [12]
  inhibition at 10 µM: 10%
[2]; [13]
  inhibition at 10 µM: -12%
Primary rat microglia [3]; rat
  Fibrin % cell toxicity: 1%
[4]; [14]
  Quadrant (FIG. 5b): Q4
Primary rat microglia [5]; rat
  LPS % cell toxicity: 0%

## Acriflavinium Hydrochloride
[1]; primary microglia HTS, LPS stimulation; increased cell size (>800 μm^2) as marker of activation
  LPS % inhibition: 129%
[2]; [7]
  Fibrin % inhibition: 110%
Primary rat microglia [3]
  Fibrin % cell toxicity: 57%
[4]; [8]
  Quadrant (FIG. 5b): Q2
Primary rat microglia [5]
  LPS % cell toxicity: 63%

## Oc1ccc2c3c1O[C@H]1[C@@H](O)CC[C@@]4(O)[C@@H](C2)N(CC2CCC2)CC[C@]314 [Nalbuphine]
[1]; [11]
  inhibition at 10 µM: 16%
[2]
  Fibrin % inhibition: −8%
Primary rat microglia [3]; rat
  Fibrin % cell toxicity: 1%
[4]
  Quadrant (FIG. 5b): Q4
Primary rat microglia [5]; rat
  LPS % cell toxicity: 0%

## NCCCCCC(=O)O [Aminocaproic Acid]
[1]; [6]
  inhibition at 10 µM: 7%
[2]
  inhibition at 10 µM: 5%
Primary rat microglia [3]; rat
  Fibrin % cell toxicity: 1%
[4]
  Quadrant (FIG. 5b): Q4
Primary rat microglia [5]; rat
  LPS % cell toxicity: 0%

## OCCc1ccccc1 [2-Phenyl-Ethanol]
[1]; [15]
  inhibition at 10 µM: 15%
[2]; [9]
  inhibition at 10 µM: -6%
Primary rat microglia [3]; rat
  Fibrin % cell toxicity: 1%
[4]; [16]
  Quadrant (FIG. 5b): Q4
Primary rat microglia [5]; rat
  LPS % cell toxicity: 0%

## CCN(CC)CCOCCOC(=O)C1(c2ccccc2)CCCC1 [Carbetapentane Citrate]
[1]; Rattus norvegicus, Microglia, primary HTS, 10 μM, LPS-stimulated primary microglia; read-out: LPS % inhibition
  inhibition at 10 µM: 7%
[2]; primary HTS, 10 μM, fibrin-stimulated primary microglia
  inhibition at 10 µM: -13%
Primary rat microglia [3]; rat
  Fibrin % cell toxicity: 1%
[4]; primary HTS, 10 μM
  Quadrant (FIG. 5b): Q4
Primary rat microglia [5]; rat
  LPS % cell toxicity: 0%

## N=C(N)NC(=O)c1nc(Cl)c(N)nc1N [Amiloride]
[1]; [15]
  inhibition at 10 µM: 7%
[2]; [9]
  inhibition at 10 µM: 20%
Primary rat microglia [3]; rat
  Fibrin % cell toxicity: 1%
[4]; [16]
  Quadrant (FIG. 5b): Q4
Primary rat microglia [5]; rat
  LPS % cell toxicity: 0%

## C[n+]1ccccc1/C=N/O [Pralidoxime]
[1]; [11]
  inhibition at 10 µM: 17%
[2]
  inhibition at 10 µM: -12%
Primary rat microglia [3]; rat
  Fibrin % cell toxicity: 1%
[4]
  Quadrant (FIG. 5b): Q4
Primary rat microglia [5]; rat
  LPS % cell toxicity: 0%

## CC(Cc1ccc(O)cc1)NCC(O)c1cc(O)cc(O)c1 (stereo not shown) [Fenoterol]
[1]; Rattus norvegicus, Microglia, 48 h, primary microglia HTS, LPS stimulation, activation = cell size >800 μm2; read-out: LPS % inhibition
  inhibition at 10 µM: 26%
[2]; [10]
  inhibition at 10 µM: 40%
Primary rat microglia [3]; rat
  Fibrin % cell toxicity: 0%
[4]; [8]
  Quadrant (FIG. 5b): Q4
Primary rat microglia [5]; rat
  LPS % cell toxicity: 0%
